Laboratory results: patent US7387998B2, “STQ peptides” (New York University, priority 2003, dated 2008)
Where a SMILES comes first, the peptide text is derived from it.

Tests used:
[1] = tested on: metastatic B16 melanoma cells; assay: B16 melanoma metastasis in chick embryo lungs; type: in vivo; settings: 100 ug/embryo intravenously with cells; 7 days incubation; versus no-STQ-peptide group
Protocol: Twelve-day old chick embryos (obtained from SPAFAS, North Franklin, Conn.) were injected intravenously with metastatic B16 melanoma cells (Chambers, et al., J. Natl. Cancer Inst. 1992; 84:797-803) in the presence or absence of STQ-peptide (100 ug/embryo). For each experiment, eight to ten chicks were tested under each set of conditions, and the experiment was repeated three times. The embryos were incubated for 7 days and then sacrificed. The chick lungs were analyzed for metastasis. B16 melanoma metastases appeared as discrete black lesions. The metastases were quantified by counting the B16 tumor lesions on the surface of the chick lungs for the STQ-peptide and no-STQ-peptide groups. B16 melanoma metastasis was inhibited by greater than 95% in the STQ-peptide group as compared to the no-STQ-peptide group (FIG. 5).

[2] = tested on: bFGF-induced angiogenesis in chorioallantoic membrane (CAM); assay: bFGF-induced angiogenesis in the chick CAM model; type: in vivo; settings: single intravenous injection 100 ug/embryo
From the text: One angiogenesis assay measures angiogenesis in the chick chorioallantoic membrane (CAM) and is referred to as the CAM assay. The CAM assay is well known among those of ordinary skill in the art and has been used to measure both angiogenesis and neovascularization of tumor tissues (Ausprunk et al., Am. J. Pathol. 1975; 79:597-618 and Ossonski et al., Cancer Res. 1980; 40:2300-2309).
Angiogenesis was induced within the chorioallantoic membrane (CAM) of 10-day old chick embryos with bFGF. Twenty-four hours later, 8-10 of the embryos were treated with a single intravenous injection of STQ-peptide (100 ug/embryo). At the end of a 3-day incubation period, the CAM tissues were removed for analysis. […] The single injection of STQ-peptide inhibited bFGF by greater than 95% (FIG. 4). […] Eight to ten chick embryos were tested in each of the two groups, and the experiment was repeated three times for a total of 24-30 chick embryos tested.

[3] = tested on: RPE cells on native laminin; assay: RPE cell adhesion to native laminin; type: cell-based, human; settings: any concentration of STQ-peptide tested (FIG. 3)
Protocol: (§1) Human denatured laminin (25 μg/ml) was immobilized on 48-well non-tissue culture treated plates. Wells were washed and incubated with 1% BSA (bovine serum albumin) in PBS (phosphate-buffered saline) for one hour at 37° C. Subconfluent RPE cells were harvested, washed, and resuspended in adhesion buffer containing RPMI-1640 medium, 1 mM MgCl2, 0.2 mM MnCl2, and 0.5% BSA. RPE cells (10^5) were resuspended in 200 μl of the adhesion buffer in the presence or absence of STQ-peptide at a concentration of 100 μg/ml or 200 μg/ml, and were added to each well and allowed to attach for 30 minutes at 37° C. The unattached cells were removed and the attached cells were stained for 10 minutes with crystal violet as described by Petitclerc, et al., Cancer Res. 1999; 59:2724-2730. The wells were washed three times with PBS and cell-associated crystal violet was eluted by addition of 100 μl of 10% acetic acid. Cell adhesion was quantified by measuring the optical density of eluted crystal violet at a wavelength of 600 nm.
A set of non-tissue culture treated 48-well plates were coated with native laminin in the presence of different concentrations of STQ-peptide according to the method described in Example 2 and by Petticlerc, et al., Cancer Res. 1999; 59:2724-2730. […]

[4] = tested on: Human RPE cells on denatured laminin; assay: RPE cell adhesion to denatured laminin; type: cell-based; settings: for blockade of RPE cell adhesion to denatured laminin: 30 min attachment, crystal violet OD 600 nm
Protocol: In vitro cell adhesion assays were conducted to determine whether the STQ-peptides bind to functional epitopes within denatured laminin that regulate cellular adhesion. Non-tissue culture treated 48-well plates were coated with denatured laminin. Human RPE cells were allowed to attach to the coated wells in the absence of STQ-peptide, in the presence of STQ-peptide at a concentration of 100 μg/ml, and in the presence of STQ-peptide at a concentration of 200 μg/ml.
as §1
A set of non-tissue culture treated 48-well plates were coated with native laminin in the presence of different concentrations of STQ-peptide according to the method described in Example 2 and by Petticlerc, et al., Cancer Res. 1999; 59:2724-2730. Another set of non-tissue culture treated plates were coated with denatured laminin in the presence of different concentrations of STQ-peptide. […] STQ-peptide had little effect on RPE cell adhesion to the wells coated with native laminin at any concentration of STQ-peptide tested (FIG. 3).

[5] = tested on: murine B16 melanoma cells on denatured laminin; assay: B16 melanoma cell adhesion to denatured laminin; type: cell-based; settings: STQ-peptide-S 50 μg/ml
Protocol: as §1
(§2) An adhesion assay was performed according to the method described in Example 2 and by Petticlerc, et al., Cancer Res. 1999; 59:2724-2730. Non-tissue culture treated 48-well plates were coated with denatured laminin in the absence of STQ-peptide-S and in the presence of STQ-peptide-S at a concentration of 50 μg/ml. […]

[6] = tested on: Human M21 melanoma cells on denatured laminin; assay: M21 melanoma cell adhesion to denatured laminin; type: cell-based; settings: STQ-peptide-S 50 μg/ml
Protocol: as §1, §2

Molecule	inhibition of B16 melanoma metastasis (lung surface lesions) [1]	adverse effects following injection ([2]; chick embryos)	inhibition of bFGF-induced angiogenesis (branching vessels) ([2]; 24 h after bFGF, 3-day incubation)	effect on RPE cell adhesion to wells coated with native laminin [3]	blockade of RPE cell adhesion to denatured laminin ([4]; STQ-peptide 100 μg/ml)	blockade of RPE cell adhesion to denatured laminin ([4]; STQ-peptide 200 μg/ml)	inhibition of RPE cell adhesion to wells coated with denatured laminin ([4]; different concentrations of STQ-peptide (FIG. 3))	blockade of B16 melanoma cell adhesion to denatured laminin [5]	blockade of M21 melanoma cell adhesion to denatured laminin [6]
CC[C@H](C)[C@H](NC(=O)[C@H](CC(C)C)NC(=O)[C@H](CO)NC(=O)[C@H](CC(C)C)NC(=O)[C@H](CC(C)C)NC(=O)[C@H](CCC(N)=O)NC(=O)[C@H](C)NC(=O)[C@H](CC(N)=O)NC(=O)[C@H](CCC(N)=O)NC(=O)[C@@H](NC(=O)[C@H](CO)NC(=O)[C@H](CS)NC(=O)CNC(=O)CNC(=O)[C@@H](N)CCCCN)[C@@H](C)O)C(=O)N[C@H](C(=O)NCC(=O)N[C@@H](CCCCN)C(=O)N[C@@H](C)C(=O)O)C(C)C [STQ-peptide, NH2-K-G-G-C-S-T-Q-N-A-Q-L-L-S-L-I-V-G-K-A-COOH] (H-KGGCSTQNAQLLSLIVGKA-OH)	greater than 95%	No adverse effects	greater than 95%	little effect	greater than 95%	greater than 95%	concentration dependent inhibition		
NH2-K-G-G-S-T-Q-N-A-Q-L-L-S-L-I-V-G-K-A-COOH (H-KGGSTQNAQLLSLIVGKA-OH) [STQ-peptide-S]								approximately 80%	approximately 80%
